Measured values from ChEMBL document CHEMBL1212792, “Comparative pharmacokinetics of ceftaroline in rats, rabbits, and monkeys following a single intravenous or intramuscular injection” (Antimicrob Agents Chemother, 2010).
Values after ≈ are worked out from the molar mass of the structure shown.

Assays:
[1] = %T>MIC in Streptococcus pneumoniae-infected neutropenic mouse model; format: functional
[2] = %T>MIC in Staphylococcus aureus-infected neutropenic mouse model; format: functional
[3] = %T>MIC human infected with Staphylococcus at 600 mg. im administered every 12 hrs; settings: route intramuscular
[4] = %T>MIC in rabbit endocarditis model at 20 mg/kg, im administered as single dose measured after 12 hrs; format: functional; settings: route intramuscular
[5] = test system: Staphylococcus; assay: Antibacterial activity against Staphylococcus infected in human; format: functional
[6] = test system: Staphylococcus; assay: Antibacterial activity against Staphylococcus; format: functional
[7] = %T>MIC in rabbit endocarditis model at 20 mg/kg, im administered as single dose measured after 8 hrs; format: functional; settings: route intramuscular
[8] = %T>MIC in gram negative bacteria-infected neutropenic mouse model; format: functional
[9] = test system: Streptococcus pneumoniae; assay: Antibacterial activity against Streptococcus pneumoniae; format: functional

## CCO/N=C(\C(=O)N[C@@H]1C(=O)N2C(C(=O)[O-])=C(Sc3nc(-c4cc[n+](C)cc4)cs3)CS[C@H]12)c1nsc(NP(=O)(O)O)n1 [CEFTAROLINE FOSAMIL]
[1]
  fT>MIC: 39%
[2]
  fT>MIC: 26%
[3]
  fT>MIC: 64.65%
[4]
  fT>MIC: 30.9%
[5]
  MIC: 0.12 µg/mL (≈ 0.175 µM)
[6]
  MIC90: ≤ 2 µg/mL
[7]
  fT>MIC: 46.3%
[8]
  fT>MIC: 32%
[9]
  MIC90: ≤ 2 µg/mL
